Experimental data taken from ChEMBL document CHEMBL1146326, “13C bis-labeled pyrroles: a tool for the identification of the rat metabolism of 3-methyl pyrrole-2,4-dicarboxylic acid 2-propyl ester 4-(1,2,2-trimethyl-propyl) ester” (Bioorg Med Chem Lett, 2007).

The molecules below were run against Metabotropic glutamate receptor 1 (Homo sapiens, UniProt Q13255) (assay: Inhibition of recombinant mGluR1a receptor expressed in CHO cells).
Type: cell-based

Metabotropic glutamate receptor 1, sequence (Q13255 whole entry): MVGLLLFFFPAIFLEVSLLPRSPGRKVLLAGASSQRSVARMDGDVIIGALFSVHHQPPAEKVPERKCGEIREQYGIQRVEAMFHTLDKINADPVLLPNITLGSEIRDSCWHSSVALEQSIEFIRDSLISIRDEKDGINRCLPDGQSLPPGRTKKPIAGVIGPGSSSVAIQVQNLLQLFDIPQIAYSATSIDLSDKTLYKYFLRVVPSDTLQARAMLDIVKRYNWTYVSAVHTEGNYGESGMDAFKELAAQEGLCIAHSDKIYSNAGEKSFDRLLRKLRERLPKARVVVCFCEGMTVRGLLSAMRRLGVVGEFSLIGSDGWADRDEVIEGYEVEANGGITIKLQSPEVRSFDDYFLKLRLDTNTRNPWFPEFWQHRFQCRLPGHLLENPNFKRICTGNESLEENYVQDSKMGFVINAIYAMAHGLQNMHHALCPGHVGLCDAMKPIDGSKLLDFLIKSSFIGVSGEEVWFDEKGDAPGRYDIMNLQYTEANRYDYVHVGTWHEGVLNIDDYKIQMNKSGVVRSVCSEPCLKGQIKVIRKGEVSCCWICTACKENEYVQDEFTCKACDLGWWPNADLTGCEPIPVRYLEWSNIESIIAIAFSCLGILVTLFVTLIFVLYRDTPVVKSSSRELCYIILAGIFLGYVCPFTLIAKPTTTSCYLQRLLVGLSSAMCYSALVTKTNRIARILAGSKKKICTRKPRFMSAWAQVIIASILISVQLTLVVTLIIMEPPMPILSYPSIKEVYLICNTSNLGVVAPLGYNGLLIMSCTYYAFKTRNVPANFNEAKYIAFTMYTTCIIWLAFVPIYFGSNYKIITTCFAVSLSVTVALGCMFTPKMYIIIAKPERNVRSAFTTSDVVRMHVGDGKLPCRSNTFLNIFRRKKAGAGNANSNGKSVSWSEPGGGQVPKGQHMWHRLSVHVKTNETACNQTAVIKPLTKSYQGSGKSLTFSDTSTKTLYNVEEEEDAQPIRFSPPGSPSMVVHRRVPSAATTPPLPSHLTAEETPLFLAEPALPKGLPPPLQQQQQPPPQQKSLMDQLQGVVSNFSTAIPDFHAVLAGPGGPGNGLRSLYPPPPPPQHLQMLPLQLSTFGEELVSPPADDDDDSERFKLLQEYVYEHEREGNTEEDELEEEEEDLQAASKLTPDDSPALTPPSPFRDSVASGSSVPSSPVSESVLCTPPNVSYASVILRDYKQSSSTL

Structure (SMILES)	IC50
COCCNC(=O)c1[nH]cc(C(=O)O[C@@H](C)C(C)(C)C)c1C	31.6 nM
CC(=O)NCCCCNC(=O)c1[nH]cc(C(=O)OC2CC3CCC2C3)c1C (centres undefined)	200 nM
COCCNC(=O)c1[nH]cc(C(=O)OC2CC3CCC2C3)c1C (centres undefined)	158 nM
CC(=O)NCCCCNC(=O)c1[nH]c(C)c(C(=O)OC2CC3CCC2C3)c1C (centres undefined)	1000 nM
CCCOC(=O)c1[nH]cc(C(=O)O[C@@H](C)C(C)(C)C)c1C	3.98 nM
COCCNC(=O)c1[nH]cc(C(=O)NC2CC3CCC2C3)c1C (centres undefined)	> 10000 nM
CCOC(=O)c1[nH]cc(C(=O)OC2CC3CCC2C3)c1C (centres undefined)	20 nM
CCOC(=O)c1[nH]c(C)c(C(=O)OC2CC3CCC2C3)c1C (centres undefined)	100 nM
COCCNC(=O)c1[nH]c(C)c(C(=O)OC2CC3CCC2C3)c1C (centres undefined)	316 nM
